Measured values taken from PMC7658073 (Clinical Pharmacokinetics, 2020).
Where two headings read alike, the source gives them in different places.

Assays:
[1] = molecular target: T1, OATP1B3 (Homo sapiens, UniProt Q9NPD5); experiment: Substrate properties towards OATP1B3; type: in vitro ADME
T1 sequence (Q9NPD5 1-702): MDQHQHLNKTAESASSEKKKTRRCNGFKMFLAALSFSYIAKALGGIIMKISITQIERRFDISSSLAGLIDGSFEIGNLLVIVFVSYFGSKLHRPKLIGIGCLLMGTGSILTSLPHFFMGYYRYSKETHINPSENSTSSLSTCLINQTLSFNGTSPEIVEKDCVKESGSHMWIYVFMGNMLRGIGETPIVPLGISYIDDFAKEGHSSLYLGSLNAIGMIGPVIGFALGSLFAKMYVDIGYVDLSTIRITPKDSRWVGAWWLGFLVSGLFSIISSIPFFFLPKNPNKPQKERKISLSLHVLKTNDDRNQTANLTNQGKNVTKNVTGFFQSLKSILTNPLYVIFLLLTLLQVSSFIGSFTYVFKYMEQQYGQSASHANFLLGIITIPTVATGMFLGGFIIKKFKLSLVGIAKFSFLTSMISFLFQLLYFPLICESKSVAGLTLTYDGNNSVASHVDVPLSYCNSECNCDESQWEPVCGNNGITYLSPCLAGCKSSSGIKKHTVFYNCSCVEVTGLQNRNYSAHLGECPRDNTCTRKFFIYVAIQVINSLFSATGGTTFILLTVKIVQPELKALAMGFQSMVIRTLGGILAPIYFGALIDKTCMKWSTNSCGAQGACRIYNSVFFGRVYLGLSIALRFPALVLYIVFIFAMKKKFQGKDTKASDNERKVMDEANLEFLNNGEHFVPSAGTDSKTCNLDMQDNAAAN

[2] = molecular target: MATE2K (Homo sapiens, UniProt Q86VL8); experiment: Inhibitory potency towards MATE2K; type: in vitro ADME
[3] = molecular target: T2, OAT3 (Homo sapiens, UniProt Q8TCC7); experiment: Inhibitory potency towards OAT3; type: in vitro ADME
T2 sequence (Q8TCC7 1-542): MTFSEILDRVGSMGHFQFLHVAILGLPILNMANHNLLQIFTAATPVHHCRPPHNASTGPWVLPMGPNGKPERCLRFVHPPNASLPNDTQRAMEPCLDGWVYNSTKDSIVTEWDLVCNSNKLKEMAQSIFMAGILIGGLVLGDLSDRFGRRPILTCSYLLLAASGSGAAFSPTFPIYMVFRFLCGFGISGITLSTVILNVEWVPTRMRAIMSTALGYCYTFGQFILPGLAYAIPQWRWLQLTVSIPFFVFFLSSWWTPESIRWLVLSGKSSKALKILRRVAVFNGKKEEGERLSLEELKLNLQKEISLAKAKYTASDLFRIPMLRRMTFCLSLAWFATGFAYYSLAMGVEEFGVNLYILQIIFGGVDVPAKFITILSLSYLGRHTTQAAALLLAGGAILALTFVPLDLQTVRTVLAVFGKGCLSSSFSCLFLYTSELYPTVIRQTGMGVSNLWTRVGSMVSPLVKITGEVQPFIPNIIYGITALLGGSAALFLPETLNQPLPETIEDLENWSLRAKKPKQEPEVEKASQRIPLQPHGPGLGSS

[4] = molecular target: T3, organic cation transporter 2 (Homo sapiens, UniProt O15244); experiment: Inhibitory potency towards OCT2; type: in vitro ADME
T3 sequence (O15244 1-555): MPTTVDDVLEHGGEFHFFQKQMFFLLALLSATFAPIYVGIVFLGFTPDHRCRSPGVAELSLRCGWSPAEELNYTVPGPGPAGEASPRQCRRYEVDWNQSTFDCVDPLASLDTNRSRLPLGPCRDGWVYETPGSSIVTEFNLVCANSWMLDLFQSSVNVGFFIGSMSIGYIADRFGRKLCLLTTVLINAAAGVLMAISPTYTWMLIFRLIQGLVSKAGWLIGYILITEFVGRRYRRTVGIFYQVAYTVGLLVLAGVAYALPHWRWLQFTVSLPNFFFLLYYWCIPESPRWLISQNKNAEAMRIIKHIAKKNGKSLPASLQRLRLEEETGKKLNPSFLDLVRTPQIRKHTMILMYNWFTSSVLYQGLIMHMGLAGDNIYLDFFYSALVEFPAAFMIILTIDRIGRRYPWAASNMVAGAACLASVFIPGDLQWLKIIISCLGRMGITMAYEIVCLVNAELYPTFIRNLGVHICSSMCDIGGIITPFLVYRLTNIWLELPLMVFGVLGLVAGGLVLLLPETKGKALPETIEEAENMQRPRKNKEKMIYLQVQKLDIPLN

[5] = molecular target: T4, UGT1A4 (Homo sapiens, UniProt P22310); experiment: Inhibitory potency towards UGT isoforms: UGT1A4; type: in vitro ADME
T4 sequence (P22310 29-534): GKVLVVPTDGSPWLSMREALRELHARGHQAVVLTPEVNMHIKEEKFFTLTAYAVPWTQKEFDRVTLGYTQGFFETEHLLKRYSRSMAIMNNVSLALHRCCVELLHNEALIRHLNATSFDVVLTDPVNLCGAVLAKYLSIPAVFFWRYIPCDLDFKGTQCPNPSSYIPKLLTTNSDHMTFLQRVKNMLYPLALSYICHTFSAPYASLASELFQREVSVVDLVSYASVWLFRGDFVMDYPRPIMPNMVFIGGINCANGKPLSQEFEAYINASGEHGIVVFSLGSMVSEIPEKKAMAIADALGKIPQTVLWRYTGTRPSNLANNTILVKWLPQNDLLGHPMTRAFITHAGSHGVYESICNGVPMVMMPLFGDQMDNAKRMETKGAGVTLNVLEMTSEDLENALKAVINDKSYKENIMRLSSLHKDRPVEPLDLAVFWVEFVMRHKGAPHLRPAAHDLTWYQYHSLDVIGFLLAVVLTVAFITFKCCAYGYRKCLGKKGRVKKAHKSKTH

[6] = molecular target: T1, OATP1B3; experiment: Inhibitory potency towards OATP1B3; type: in vitro ADME
[7] = test system: CYP1A2; experiment: CYP induction in cultured human hepatocytes: CYP1A2; type: in vitro ADME; settings: three donors, up to 10,000 μg/L (23.5 µM)
[8] = ref data on file, cited from earlier work
[9] = serum albumin main binding component; ref data on file; cited from earlier work
[10] = cited from earlier work
[11] = cited from earlier work; remark: listed apart in the source
[12] = following a 10-mg dose once daily

MATE2K, sequence (Q86VL8 1-566 isoform Q86VL8-3): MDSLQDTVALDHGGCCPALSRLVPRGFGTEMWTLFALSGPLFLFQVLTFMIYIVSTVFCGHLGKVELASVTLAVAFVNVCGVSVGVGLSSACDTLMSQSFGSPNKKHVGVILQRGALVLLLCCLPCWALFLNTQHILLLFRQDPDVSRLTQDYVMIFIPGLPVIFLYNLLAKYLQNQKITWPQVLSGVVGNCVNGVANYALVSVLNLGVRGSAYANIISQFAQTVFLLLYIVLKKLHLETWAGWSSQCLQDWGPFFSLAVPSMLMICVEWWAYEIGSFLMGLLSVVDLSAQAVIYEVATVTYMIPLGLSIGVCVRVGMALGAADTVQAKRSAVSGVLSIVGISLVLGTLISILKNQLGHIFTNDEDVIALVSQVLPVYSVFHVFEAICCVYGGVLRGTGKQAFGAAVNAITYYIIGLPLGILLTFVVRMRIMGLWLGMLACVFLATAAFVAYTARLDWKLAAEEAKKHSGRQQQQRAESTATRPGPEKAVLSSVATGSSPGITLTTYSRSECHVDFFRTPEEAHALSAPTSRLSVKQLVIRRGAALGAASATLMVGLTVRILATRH

COC(=O)Nc1c(N)nc(-c2nn(Cc3ccccc3F)c3ncc(F)cc23)nc1N [Vericiguat]
Substrate of OATP1B3 [1]: not a substrate | IC50 [2]: > 10 µM | IC50 [3]: > 5 µM | IC50 [4]: > 5 µM | IC50 [5]: > 50 µM | IC50 [6]: ~30 µM | Induction of CYP1A2 [7]: no significant induction | Projected unbound inlet Cmax [8, 12]: 30 nM | Unbound Cmax [8, 12]: approximately 0.02 µM | Unbound Cmax ([8]; multiple-dose oral 10 mg once daily in patients with HFrEF): approximately 0.02 µM | Cmax ([8]; read-out: Total Cmax, following a 10-mg dose once daily): ~800 nM | Plasma protein binding [9]: approximately 98% | Clearance ([10]; healthy volunteers): 1.6 L/h | Clearance ([10]; patients with HFrEF): 1.3 L/h | Variability in steady-state AUC ([10]; population PK model, patients with HFrEF): about 30% | Increase in AUC after administration with food compared to without ([11]; vericiguat alone): approximately 44% | Increase in Cmax after administration with food compared to without ([11]; vericiguat alone): ~41% | Geometric coefficient of variation in AUC ([11]; with food): 19% | Oral bioavailability ([11]; with food): 93% | Geometric coefficient of variation in AUC ([11]; without food): 41%
